This assay deals with CEM cells HIV-1 protection, formazan growth assay. The assay is described as follows: NCI AIDS Antiviral Assay. Conditions: for IC50: measured here: growth of uninfected CEM cells. The method in brief:
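Protection of CEM cells against HIV-1 was scored from cell growth (soluble formazan) across five concentrations, with parallel uninfected cells. Lack of protection may reflect toxicity.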

Values joined by “and” are separate entries in the source; they are usually repeats but may differ in a detail not shown here. Equal entries are not always repeated. Active and inactive are the calls of the source.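 Rule for the calls: active = compounds giving half or more protection of infected cells from virus-caused growth loss, again on retest; inactive = the rest.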

For 70 molecules, EC50, IC50 and outcome results are on record in PubChem BioAssay AID179 (DTP/NCI, 2004).

Broadly, the EC50 is the concentration needed to bring the measured effect to its halfway point. As usually defined, the IC50 is the concentration at which inhibition is half-maximal. In the case of `CCC(N)Cc1c[nH]c2ccccc12` (centres undefined), the EC50 is greater than 200 µM and the concentration for half-maximal inhibition (IC50) was greater than 200 µM.
With `CC(C)N(C(=O)C12C3C4C5C3C1(C#N)C5C42)C(C)C` (centres undefined), the EC50 was greater than 195 µM and the IC50 was greater than 195 µM.
For the molecule `Cn1c2ccccc2c(=NNc2ccc(S(=O)(=O)N=C(N)N)cc2)c2ccccc21`, the EC50 is greater than 200 µM and the IC50 turned out to be 5.5 µM.
On the same counts, the results for `O=C(NNC(=O)c1ccccc1O)c1cccs1` are greater than 200 µM and 16.2 µM.
As to `Cc1ccccc1NC(=O)/C=N/O`, the result was inactive.
For `COc1ccccc1N1C(=O)CC(=O)N(C(=O)CCCCCCCCC(=O)N2C(=O)CC(=O)N(c3ccccc3OC)C2=S)C1=S`, the EC50 was greater than 200 µM and the IC50 turned out to be 95.5 µM.
With `C=C(C)C1CC=C(C)[C@](O)(C2(O)C[C@H](C(=C)C)CC=C2C)C1` (some centres undefined), the outcome was inactive.
On to `O=C1C(c2ccccc2)=C(c2ccccc2)C(c2ccc(Sc3ccc(C4=C(c5ccccc5)C(=O)C(c5ccccc5)=C4c4ccccc4)cc3)cc2)=C1c1ccccc1`, for which the EC50 is greater than 1.82 µM and the IC50 was greater than 1.82 µM.
As to `C=CC1(CC/C(=C\[N+](=O)[O-])c2ccc(OC)c(OC)c2)OCC(C)(C)CO1`, the EC50 is greater than 200 µM and the IC50 came out at 17.4 µM.
For `Nc1cnc(N2CCN(c3ncc(N)cc3N)CC2)c(N)c1`, the EC50 is greater than 95.5 µM and the IC50 turned out to be 77.6 µM.
On to `OCC12CCCC(CO)(COC1)C2O` (centres undefined), for which the EC50 is greater than 200 µM and the 50% inhibitory concentration (IC50) is greater than 200 µM.
`COC(=O)C1=C(O)c2cc(C)c(C)c(C#N)c2NC(=O)C1`: the EC50 is greater than 200 µM and the IC50 is greater than 200 µM.
Consider `CCCCCCCCCCCCC(CC)CCCCC(=O)O` (centres undefined), for which the outcome was inactive.
For the molecule `Cc1ccc(C(=O)Nc2ccc(S(=O)(=O)O)c3cc(S(=O)(=O)O)cc(S(=O)(=O)O)c23)cc1NC(=O)c1cccc(N)c1`, the EC50 was greater than 200 µM and the half-maximal inhibitory concentration (IC50) is greater than 200 µM.
As to `CC(C)(c1ccccc1)C(C)(C)c1nc(-c2ccccc2)cc(-c2ccccc2)n1`, the EC50 is greater than 3.72 µM and the IC50 is greater than 3.72 µM.
Turning to `C=C1CC(CC)(CCN2C(=O)c3ccccc3C2=O)OC1=O` (centres undefined), the EC50 was greater than 209 µM and the IC50 was determined as 10.5 µM.
The matching figures for `CCOC(=O)C#CC(=O)OCC`: greater than 200 µM and 15.1 µM.
On the same counts, the results for `O=C(O)c1cc(CC2Cc3cc4c(cc3C2=O)CCC4)cc2c1CCC2` (centres undefined) are greater than 200 µM and 53.7 µM.
Take `CCOc1ccc(N=Nc2ccc3cc(/C(C)=N/NC(=O)/C(C#N)=C\c4ccc(N(CCC#N)CCC#N)cc4)c(=O)oc3c2)cc1`: the EC50 is greater than 200 µM and the IC50 was greater than 200 µM.
As to `CCCCCCCCCCCCCC(=O)OC1C(C)C2(O)C(C=C(CO)CC3(O)C(O)C(C)=CC32)C2C(C)(C)C12OC(C)=O` (centres undefined), the outcome was active.
For `CC(=O)CCC(=O)C(=[N+]=[N-])S(=O)(=O)c1ccccc1`, the EC50 was greater than 891 µM and the half-maximal inhibitory concentration (IC50) came to 151 µM.
On to `Cc1ccccc1NC(=S)N/N=C(/c1ccccc1)c1ccccn1`, for which the EC50 was greater than 0.2 µM and the IC50 is 0.0676 µM.
As for `CC(C)(C)C1CCC(O)(c2ccccc2)CC1` (centres undefined), the EC50 is greater than 42.7 µM and the half-maximal inhibitory concentration (IC50) is greater than 42.7 µM.
On to `CN(C)Cc1cc(C(=O)/C=C/c2ccc([N+](=O)[O-])cc2)cc(CN(C)C)c1O`, for which the EC50 was greater than 200 µM and the 50% inhibitory concentration (IC50) was 2.82 µM.
The matching figures for `O=C1CSC2=NCC3(NN12)c1ccccc1-c1ccccc13`: greater than 200 µM and greater than 100 µM.
Regarding `COc1ccc2c(c1)CC[C@@H]1C2CC[C@]2(C)OC(=O)CCC12` (some centres undefined), the EC50 was greater than 87.1 µM and the half-maximal inhibitory concentration (IC50) came out at 12 µM.
As for `C/C(O)=C(/C=N\C(=S)Nc1ccc(S(=O)(=O)Nc2nccs2)cc1)C(=O)Nc1ccccc1C`, the EC50 was greater than 200 µM and the IC50 stood at 30.2 µM.
For `CC1SCc2nc3ccccc3n21` (centres undefined), the EC50 was greater than 200 µM and the half-inhibitory concentration (IC50) was greater than 200 µM.
For the molecule `NC(=O)C(Cc1ccccc1)NC(=O)c1ccccc1SC(=O)CCCC[n+]1ccccc1` (centres undefined), the EC50 was greater than 200 µM and the IC50 is 4.47 µM.
The matching figures for `C1SCSCS1`: greater than 200 µM and greater than 200 µM.
With `CCOC(=O)c1cn(CC)c(=O)n2c1nc1ccccc12`, the EC50 was greater than 200 µM and the IC50 turned out to be 117 µM.
For `CN(C)c1ccc(/C=N/Nc2nc3ccccc3c(=O)n2-c2ccccc2)cc1`, the EC50 was greater than 100 µM and the 50% inhibitory concentration (IC50) is greater than 100 µM.
For the molecule `Nc1nc2ncn(CC(O)COC(=O)c3ccccc3)c2c(=O)[nH]1` (centres undefined), the EC50 was greater than 21.9 µM and the IC50 is greater than 21.9 µM.
For the molecule `O=S(Nc1ccccc1)c1ccc(Cl)c(Cl)c1` (centres undefined), the EC50 was greater than 200 µM and the concentration for half-maximal inhibition (IC50) is greater than 200 µM.
As to `CN1CCN(c2ncc3c(n2)sc2c(=O)n(-c4ccccc4)cnc23)CC1`, the EC50 is greater than 200 µM and the half-maximal inhibitory concentration (IC50) is greater than 200 µM.
In the case of `CC(C(=O)O)C1Nc2ccccc2NC1=O` (centres undefined), the EC50 was greater than 200 µM and the IC50 was found to be 83.2 µM.
The matching figures for `CC1(C)Oc2cc3oc(C(=O)O)cc(=O)c3cc2-c2ccc(O)cc21`: greater than 490 µM and 347 µM.
On the same counts, the results for `COc1ccc(-c2cc3cc(Cl)cc(Cl)c3oc2=O)cc1OC` are greater than 200 µM and 186 µM.
`CN(C)c1ccc(C2CC(=O)CC(c3ccc(N(C)C)cc3)C23C(=O)NC(=O)NC3=O)cc1` (centres undefined): the EC50 is greater than 25.1 µM and the half-maximal inhibitory concentration (IC50) was greater than 25.1 µM.
For the molecule `Cc1[nH]n(-c2nc3c(c(=O)[nH]2)CCC3)c(=O)c1CCO`, the EC50 is greater than 200 µM and the 50% inhibitory concentration (IC50) was found to be 182 µM.
As for `CCCCN(CC)C(=O)C(=O)C1C(=O)Nc2ccccc2S1=O` (centres undefined), the EC50 is greater than 204 µM and the IC50 was greater than 204 µM.
With `CNc1ncnc2c1cnn2CCCCO`, the EC50 is greater than 200 µM and the IC50 is greater than 200 µM.
Turning to `COc1cc2c(cc1OC)C1c3ccccc3CN1CC2` (centres undefined), the EC50 is greater than 200 µM and the IC50 stood at 105 µM.
Take `CCCCOC(=O)C1CSSCC(NC(C)=O)C(=O)N1` (centres undefined): the EC50 is greater than 200 µM and the IC50 is 112 µM.
As for `COC(=O)C1(Cc2ccccc2)Cc2cc3c(cc2C1=O)CCC3` (centres undefined), the EC50 was greater than 200 µM and the IC50 came to 85.1 µM.
Consider `COc1ccccc1-n1c(N)c2c(C)c(-c3ccccc3)[nH]c2nc1=S`, for which the EC50 is greater than 200 µM and the IC50 was 38 µM.
As to `COc1ccc(Oc2nc3c(N)cc(C(F)(F)F)cc3nc2-c2ccccc2)cc1`, the EC50 is greater than 100 µM and the 50% inhibitory concentration (IC50) was 34.7 µM.
Consider `BrC1=CC=C2NC=CC3=CC=NC1C32` (centres undefined), for which the outcome was inactive.
Regarding `CS(=O)(=O)c1ccc(-c2cc(-c3ccc(S(C)(=O)=O)cc3)[n+](-c3cc(-c4ccc(S(C)(=O)=O)cc4)c([O-])c(-c4ccc(S(C)(=O)=O)cc4)c3)c(-c3ccc(S(C)(=O)=O)cc3)c2)cc1`, the EC50 was greater than 7.59 µM and the IC50 is greater than 7.59 µM.
For `Cn1nc(-c2ccccc2)c(C(=O)/C=C/c2ccccc2)c(N2CCCC2)c1=O`, the EC50 is 12.6 µM and the IC50 was determined as 52.5 µM.
On the same counts, the results for `Cn1c(=O)c2c(nnc(-c3ccccc3)[n+]2[O-])n(C)c1=O` are greater than 200 µM and 87.1 µM.
As to `O=C1OC(C2Cc3ccc4c(c3C2=O)CCC4)c2ccccc21` (centres undefined), the EC50 was greater than 200 µM and the IC50 worked out at 81.3 µM.
`Cc1cccc(N=NC(=O)NNc2cccc(C)c2C)c1C`: the EC50 was greater than 200 µM and the IC50 came to 70.8 µM.
Consider `O=C(SCc1c(O)c2ccccc2oc1=O)c1ccccc1`, for which the EC50 was greater than 200 µM and the half-inhibitory concentration (IC50) was found to be 67.6 µM.
On to `CCOC(=O)Cn1c(=O)n(C)c(=O)c2[nH]cnc21`, for which the EC50 is greater than 1000 µM and the IC50 is greater than 1000 µM.
Take `CCS1=C2C(=O)CC(C)(C)CC2=Nc2ccccc21` (centres undefined): the EC50 is greater than 200 µM and the half-inhibitory concentration (IC50) is greater than 200 µM.
For `C[C@@H](CC(=O)O)OC1OC(COC(=O)C(C)(C)C)C(OC(=O)C(C)(C)C)C(OC(=O)C(C)(C)C)C1OC(=O)C(C)(C)C` (some centres undefined), the EC50 is greater than 200 µM and the IC50 was 27.5 µM.
Consider `Cc1cc(=O)c2cc3ccc4c5[nH]c(C)cc(=O)c5cc5ccc(c2[nH]1)c3c54`, for which the EC50 is greater than 200 µM and the IC50 turned out to be 33.9 µM.
`COc1cc2c(c(OC)c1OC)C(=O)[C@@H](O)[C@H]2NC(N)=O`: the EC50 is greater than 200 µM and the IC50 is greater than 200 µM.
Regarding `CC(=O)O[C@@H]1CC[C@]2(C)C3CC[C@]4(C)C(C(C)CCc5nc6ccccc6n5C(C)=O)CCC4C3[C@H](OC(C)=O)C[C@@H]2C1` (some centres undefined), the EC50 was greater than 50.1 µM and the IC50 came out at 3.16 µM.
Regarding `OCC(O)C(OC1OC(CO)C(O)C(O)C1O)c1nn(-c2ccccc2)c2nc3cc(Cl)c(Cl)cc3cc12` (centres undefined), the outcome was inactive.
For `CCN(CC)CCOc1ccc(/C=C(\C#N)c2ccc(OCCN(CC)CC)cc2)cc1`, the EC50 is greater than 53.7 µM; the IC50 is 3.72 µM and 6.92 µM.
With `COc1cccc2c1C(=O)c1c(O)c3c(c(O)c1C2=O)C[C@@](O)(C(C)=O)C[C@@H]3OC1CC(N)C(O)C(C)O1` (some centres undefined), the EC50 was greater than 4.47 µM and the IC50 was 0.0038 µM.
Consider `N#C/C(=C\c1c[nH]c2ccccc12)C(=O)c1ccc(O)c(O)c1`, for which the EC50 is greater than 85.1 µM and the IC50 stood at 46.8 µM.
As to `CN=C1OC2(c3ccccc3)C3=C(OC(=NC)N2C)C(=O)OC3(c2ccccc2)N1C` (centres undefined), the EC50 is greater than 200 µM and the IC50 was 148 µM.
For `O=C(O)C(SSC(C(=O)O)(c1ccccc1)c1ccccc1)(c1ccccc1)c1ccccc1`, the EC50 is greater than 200 µM and the IC50 came out at 89.1 µM.
`COc1cc(/C=C/C(=O)OCC23CC[C@@]4(C(=O)O)CCC(C)[C@H](C)C4C2=CCC2[C@@]4(C)CC[C@H](O)C(C)(C)C4CC[C@]23C)ccc1O` (some centres undefined): the EC50 was greater than 200 µM and the IC50 was 1.05 µM.
On the same counts, the results for `c1ccc2c(CC[n+]3cccc(C4OCCO4)c3)c[nH]c2c1` are greater than 661 µM and 110 µM.
Turning to `Nc1nc(SC2CCCCC2)nc2c1ncn2C1OC(CO)C(O)C1O` (centres undefined), the EC50 is greater than 200 µM and the IC50 came out at 138 µM.
As to `CN(C)CCN(C)c1ccc2c(=O)n(CCN(C)C)c(=O)n3c4ccccc4c(=O)c1c23`, the EC50 is greater than 0.2 µM and the IC50 was determined as 0.11 µM.
